US9096565B2, “Inhibitors of histone deacetylase” (MethylGene Inc., priority 2007, dated 2015)
pIC50: −log10 of the molar value.

The molecules below were run against one or more of HDAC-4, HDAC-5, HDAC-6, HDAC-7, HDAC-8, HDAC-9, HDAC-10 and HDAC-11 (assay: Inhibition of histone deacetylase enzymatic activity (summary statement over isoforms)). Details: Table 3, selected examples; HDAC isoform not given.
Assay type: biochemical
Outline: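 HDAC enzyme mix with compound was preincubated 5 min at room temperature. Reaction was started at 37 °C with Boc-Lys(trifluoroacetyl)-AMC substrate and run 20-30 min. It was stopped with trypsin (1 mg/mL) plus a known HDAC inhibitor to release the fluorogenic AMC.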
O=C(NO)C(c1ccccc1)N1CCN(C2=Nc3ccccc3Oc3ccc(Cl)cc32)CC1 (stereo not shown) [Compound 5-20, (E)-2-(4-(2-chlorodibenzo[b,f][1,4]oxazepin-11-yl)piperazin-1-yl)-N-hydroxy-2-phenylacetamide] showed a pIC50 of over 6.00. With O=C(NO)C(c1ccccc1)c1cccc(-c2ccc(Oc3ccccc3)cc2)c1 (stereo not shown) [Compound 2-100, N-hydroxy-2-(4′-phenoxybiphenyl-3-yl)-2-phenylacetamide] the pIC50 was 4.82 to 6.00. COc1ccc(C(C(=O)NO)c2ccccc2)cc1 (stereo not shown) [Compound 3-43, N-hydroxy-2-(4-methoxyphenyl)-2-phenylacetamide] gave a pIC50 of over 6.00. With O=C(NO)C(c1ccccc1)c1cccc(OCCCc2ccccc2)c1 (stereo not shown) [Compound 3-36, N-hydroxy-2-phenyl-2-(3-(3-phenylpropoxy)phenyl)acetamide] the pIC50 was over 6.00. O=C(NO)C(c1ccccc1)N1CCN(c2ccccn2)CC1 (stereo not shown) [Compound 5-73, N-hydroxy-2-phenyl-2-(4-(pyridin-2-yl)piperazin-1-yl)acetamide] gave a pIC50 of over 6.00. O=C(NO)C(c1ccc(N2CCCC2)cc1)c1ccc2c(c1)CCO2 (stereo not shown) [Compound 5-69, 2-(2,3-dihydrobenzofuran-5-yl)-N-hydroxy-2-(4-(pyrrolidin-1-yl)phenyl)acetamide] was tested, and the pIC50 was over 6.00. Work on Cc1noc(C)c1COc1ccc(C(C(=O)NO)c2ccccc2)cc1 (stereo not shown) [Compound 3-51, 2-(4-((3,5-dimethylisoxazol-4-yl)methoxy)phenyl)-N-hydroxy-2-phenylacetamide] yielded a pIC50 of over 6.00. In the case of O=CN(O)C(c1ccccc1)c1ccccc1 [Compound 1-47, N-benzhydryl-N-hydroxyformamide], the pIC50 was over 6.00. C=CCOc1ccc(C(C(=O)NO)c2ccccc2)cc1 (stereo not shown) [Compound 3-46, 2-(4-(allyloxy)phenyl)-N-hydroxy-2-phenylacetamide] gave a pIC50 of over 6.00. For O=C(NO)C(c1ccc(Cl)cc1)c1ccc(Cl)cc1 [Compound 1-15, 2,2-bis(4-chlorophenyl)-N-hydroxyacetamide], the pIC50 was over 6.00.
